Laboratory results from US20240270762A1, “PENICILLIN-BINDING PROTEIN INHIBITORS” (priority 2021, published 2024).
Converted amounts (≈) assume the structure as drawn. Like-named read-outs stand apart in the source and are kept apart here.

How the values were obtained:
Assay type in all cases: cell-based
A. baumannii CDC-0083 = assay: microbe, parasite or virus in culture; conditions: Acinetobacter baumannii, CDC0083, read-out: MIC, A. baumannii CDC-0083
P. aeruginosa ATCC 27853 = assay: microbe, parasite or virus in culture; conditions: Pseudomonas aeruginosa, ATCC27853, read-out: MIC P. aeruginosa ATCC 27853
A. baumannii ATCC 19606 = assay: microbe, parasite or virus in culture; conditions: Acinetobacter baumannii, ATCC19606, read-out: MIC, A. baumannii ATCC 19606
E. coli AG100A = assay: Broth microdilution MIC in CAMHB; conditions: Escherichia coli, read-out: MIC E. coli AG100A
[1] = system: P. aeruginosa (ΔmexAB-oprM); assay: Broth microdilution MIC in CAMHB
K. pneumoniae UMM = assay: microbe, parasite or virus in culture; conditions: Klebsiella pneumoniae, read-out: MIC K. pneumoniae UMM
[2] = Pseudomonas aeruginosa; read-out: MIC P. aeruginosa ΔmexAB-oprM

In the case of `O=C(O)c1c(F)ccc2c1OB(O)[C@@H](NC(=O)[C@H](NC(=O)N1CCN(Cc3ccc(O)c(O)c3Cl)C(=O)C1=O)c1ccc(P(=O)(O)O)cc1)C2` (single isomer, unassigned) [Example 160], the MIC (A. baumannii CDC-0083) is reported as less than 1 µg/mL, the MIC (P. aeruginosa ATCC 27853) is reported as less than 1 µg/mL and the MIC (A. baumannii ATCC 19606) is reported as less than 1 µg/mL. It also gave an MIC (E. coli AG100A) of less than 1 µg/mL, an MIC [1, 2] of less than 1 µg/mL and an MIC (K. pneumoniae UMM) of 2 to 4 µg/mL (≈ 2.72 to 5.44 µM).
`O=C(O)c1cccc2c1OB(O)[C@@H](NC(=O)[C@H](NC(=O)N1CCN(Cc3cc(F)c(O)c(O)c3Cl)C(=O)C1=O)c1ccc(P(=O)(O)O)cc1)C2` [Example 504, (R)-3-((R)-2-(4-(2-chloro-5-fluoro-3,4-dihydroxybenzyl)-2,3-dioxopiperazine-1-carboxamido)-2-(4-phosphonophenyl)acetamido)-2-hydroxy-3,4-dihydro-2H-benzo[e][1,2]oxaborinine-8-carboxylic acid] showed an MIC (P. aeruginosa ATCC 27853) of less than 1 µg/mL, an MIC (A. baumannii ATCC 19606) of less than 1 µg/mL and an MIC (E. coli AG100A) of less than 1 µg/mL. The MIC ([1]; Pseudomonas aeruginosa, read-out: MIC P. aeruginosa ΔmexAB-oprM) was less than 1 µg/mL and the MIC (K. pneumoniae UMM) was 2 to 4 µg/mL (≈ 2.72 to 5.44 µM).
Molecule `O=C(O)c1c(F)ccc2c1OB(O)[C@@H](NC(=O)C(NC(=O)N1CCN(S(=O)(=O)c3ccc(O)c(O)c3Cl)C1=O)c1ccc(P(=O)(O)O)cc1)C2` (stereo partly drawn) [Example 505, (3R)-3-(2-(3-((2-chloro-3,4-dihydroxyphenyl)sulfonyl)-2-oxoimidazolidine-1-carboxamido)-2-(4-phosphonophenyl)acetamido)-7-fluoro-2-hydroxy-3,4-dihydro-2H-benzo[e][1,2]oxaborinine-8-carboxylic acid] has an MIC (P. aeruginosa ATCC 27853) of less than 1 µg/mL, an MIC (A. baumannii ATCC 19606) of less than 1 µg/mL and an MIC (E. coli AG100A) of less than 1 µg/mL. It also gave an MIC [1, 2] of less than 1 µg/mL and an MIC (K. pneumoniae UMM) of less than 1 µg/mL.
`O=C(O)c1c(F)ccc2c1OB(O)[C@@H](NC(=O)[C@H](NC(=O)N1CCN(S(=O)(=O)c3ccc(O)c(O)c3Cl)C1=O)c1ccc(P(=O)(O)O)cc1)C2` [Example 506, (R)-3-((R)-2-(3-((2-chloro-3,4-dihydroxyphenyl)sulfonyl)-2-oxoimidazolidine-1-carboxamido)-2-(4-phosphonophenyl)acetamido)-7-fluoro-2-hydroxy-3,4-dihydro-2H-benzo[e][1,2]oxaborinine-8-carboxylic acid] showed an MIC (P. aeruginosa ATCC 27853) of less than 1 µg/mL, an MIC (A. baumannii ATCC 19606) of less than 1 µg/mL and an MIC (E. coli AG100A) of less than 1 µg/mL. It also gave an MIC [1, 2] of less than 1 µg/mL and an MIC (K. pneumoniae UMM) of less than 1 µg/mL.
Molecule `O=C(O)c1cccc2c1OB(O)[C@@H](NC(=O)[C@H](NC(=O)N1CCN(S(=O)(=O)c3ccc(O)c(O)c3Cl)C1=O)c1ccc(P(=O)(O)O)cc1)C2` [Example 509, (R)-3-((R)-2-(3-((2-chloro-3,4-dihydroxyphenyl)sulfonyl)-2-oxoimidazolidine-1-carboxamido)-2-(4-phosphonophenyl)acetamido)-2-hydroxy-3,4-dihydro-2H-benzo[e][1,2]oxaborinine-8-carboxylic acid] has an MIC (P. aeruginosa ATCC 27853) of less than 1 µg/mL, an MIC (A. baumannii ATCC 19606) of less than 1 µg/mL and an MIC (E. coli AG100A) of less than 1 µg/mL. The MIC [1, 2] was less than 1 µg/mL and the MIC (K. pneumoniae UMM) was less than 1 µg/mL.
